Publication PMC12486805, “Preclinical evaluation of tridecaptin M: in vitro and in vivo efficacy against colistin-resistant Gram-negative bacterial pathogens and pharmacokinetics” (Antimicrobial Agents and Chemotherapy, 2025)
Like-named read-outs stand apart in the source and are kept apart here. Where a SMILES comes first, the peptide text is derived from it. [ ]: non-standard residue; d: D form. The star is where a group is joined. d(aIle) = CC[C@H](C)[C@@H](N)C(=O)O; X1 = CC[C@H](C)CCCCC(=O)*; dDab = NCC[C@@H](N)C(=O)O; Dab = NCC[C@H](N)C(=O)O

Key:
[1] = Description: Acute toxicity was performed on Balb/c female mice, 8 weeks old. This study was adopted and modified from a study described previously ([39]). Initial screening was done with 100 mg/kg, 200 mg/kg, 400 mg/kg, and 600 mg/kg doses of tridecaptin M and vehicle control (100% DMSO). […] Eight mice were taken, four in each group ([…]), one group was administered vehicle control (DMSO), and the other group was administered 600 mg/kg of tridecaptin M. After 3 days, blood was collected to obtain serum for biochemical tests, and mice were euthanized to remove organs (preserved in 10% formalin) for histopathological analysis.
[2] = system: K. pneumoniae ATCC 700603; settings: ATCC 700603, 48 h
Description: LB, TSB, TSB + 1% Glucose, M63, and the M63 media were selected for biofilm experiments ([20], [30], [31]). With some modifications from previous methods, employing CV staining, K. pneumoniae cells were grown in M63 salt media at 37°C, 200 rpm shaking conditions overnight. […] Following incubation, the media and planktonic cells were gently removed, and the wells with adhered biofilm were washed three times with 0.9% saline. […] The biofilm inhibition was calculated as the percentage of biofilm remaining after treatment using the formula:
Biofilms remaining (%)=OD595 (sample)/OD595 (control)×100%

in vitro [3] = settings: human, plasma
Description: Plasma protein binding was assessed using the rapid equilibrium dialysis (RED) method, utilizing RED insert devices with a dialysis membrane featuring an 8,000 Dalton molecular weight cutoff for proteins. The test/control items in human, rat, and mouse plasma were prepared at a test concentration of 10 µM using 10 mM DMSO stocks, and the samples were added to the plasma chamber of the RED insert. The device was sealed with tape and incubated in a thermomixer at 37°C with shaking at 300 rpm for 4 h. Following incubation, a 50 µL aliquot of plasma and buffer was collected from each insert and diluted with an equal volume of the opposite matrix to mitigate matrix effects. The samples were quantified using LC-MS/MS analysis and were tested in duplicates.

hERG channel = target: T1, hERG channel (Homo sapiens, UniProt Q12809); assay: hERG channel inhibition, patch clamp on HEK293 cells expressing hERG; assay type: cell-based
T1 construct: expressed in transfected cells; host or cells: HEK293
T1 sequence (Q12809 whole entry): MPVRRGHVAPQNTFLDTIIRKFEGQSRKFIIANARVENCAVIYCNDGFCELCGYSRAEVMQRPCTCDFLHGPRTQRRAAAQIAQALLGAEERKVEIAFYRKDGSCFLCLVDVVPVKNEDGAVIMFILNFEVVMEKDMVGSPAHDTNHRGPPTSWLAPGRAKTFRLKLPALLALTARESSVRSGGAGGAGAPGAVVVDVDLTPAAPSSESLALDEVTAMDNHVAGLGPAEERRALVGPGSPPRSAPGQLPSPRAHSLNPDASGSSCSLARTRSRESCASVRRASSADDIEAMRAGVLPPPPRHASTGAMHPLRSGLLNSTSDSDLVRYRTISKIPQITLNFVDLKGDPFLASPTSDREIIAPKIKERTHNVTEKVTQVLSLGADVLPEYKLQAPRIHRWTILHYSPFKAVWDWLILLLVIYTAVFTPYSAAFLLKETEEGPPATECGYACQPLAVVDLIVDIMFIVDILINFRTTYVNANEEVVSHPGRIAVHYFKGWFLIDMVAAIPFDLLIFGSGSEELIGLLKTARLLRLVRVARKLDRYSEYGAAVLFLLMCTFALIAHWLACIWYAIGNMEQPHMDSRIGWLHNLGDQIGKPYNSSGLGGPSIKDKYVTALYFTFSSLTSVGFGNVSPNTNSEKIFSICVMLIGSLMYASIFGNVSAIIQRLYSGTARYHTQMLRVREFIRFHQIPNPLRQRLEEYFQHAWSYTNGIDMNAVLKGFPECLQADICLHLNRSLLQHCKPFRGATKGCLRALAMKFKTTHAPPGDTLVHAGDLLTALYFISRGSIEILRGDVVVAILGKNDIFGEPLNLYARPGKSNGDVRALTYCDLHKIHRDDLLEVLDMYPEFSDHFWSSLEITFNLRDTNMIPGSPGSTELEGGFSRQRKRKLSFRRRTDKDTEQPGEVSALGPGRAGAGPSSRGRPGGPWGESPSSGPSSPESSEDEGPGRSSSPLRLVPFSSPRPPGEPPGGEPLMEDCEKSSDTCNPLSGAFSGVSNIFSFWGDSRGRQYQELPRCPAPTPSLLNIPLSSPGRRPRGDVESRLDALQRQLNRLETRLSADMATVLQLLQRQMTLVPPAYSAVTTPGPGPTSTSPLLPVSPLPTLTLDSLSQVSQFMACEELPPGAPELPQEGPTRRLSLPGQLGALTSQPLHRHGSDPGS
Description: The experiment starts upon reaching a resistance of 2-3.5 MOhm. A 5 µL cell suspension is added after generating a suction pulse to capture a cell, increasing resistance to 5 MOhm, and triggering the sealing step. […] A hERG protocol measures ion current every 10 s with voltage steps: holding at −80 mV, depolarizing to +40 mV, and repolarizing to −40 mV. Stable current is achieved in ~2 min. […]

Salmonella typhimurium = assay type: cell-based
Description: The Salmonella typhimurium histidine-dependent engineered tester strains are allowed to incubate with S9 enzyme mix or PBS (without S9 set) for 30 min at 35°C. After incubation, the mixture was added to 2 mL of top agar tubes maintained at 46 ± 2°C and plated onto minimal glucose agar plates. After solidification, the plates are incubated at 37°C. Salmonella typhimurium auxotrophic mutants, if grown on minimal media, are counted as the number of revertant colonies due to the mutagenic potential of the compound tested. Positive controls, growth controls, and sterility checks are included during the experimentation for the sensitivity of the experiment ([38]).

[4] = 14-day repeat dose toxicity in mice; settings: 15 mg/kg/day in two s.c. doses, 14 days
Description: Organs were fixed in 10% formalin for histopathology, and the serum was centrifuged from whole blood. The blood was left undisturbed for 20 min and centrifuged at 1,000 × g for 10 min to isolate serum for biochemical tests of the kidney and liver toxicity evaluation ([22]).

in vitro [5] = settings: mouse, microsomes
Description: For without cofactors, 20 µL of PBS was added instead of pre-incubated cofactors. […] At each specified time, a 100 µL sample was taken, processed through a sample extraction procedure, and submitted for LC-MS/MS analysis ([35]). Half-life (t1/2) of test/control items was determined using the following equation
where, elimination rate constant (k) = −(slope of linear regression curve).

## CC[C@H](C)CCCCC(=O)NCC(=O)N[C@H](CCN)C(=O)NCC(=O)N[C@H](CO)C(=O)N[C@H](Cc1c[nH]c2ccccc12)C(=O)N[C@@H](CO)C(=O)N[C@@H](CCN)C(=O)N[C@H](CCN)C(=O)N[C@H](C(=O)N[C@@H](CCC(=O)O)C(=O)N[C@H](C(=O)N[C@@H](C(=O)N[C@@H](CO)C(=O)O)[C@@H](C)CC)[C@@H](C)CC)[C@@H](C)CC [Tridecaptin M, tridecaptin M] (X1-G[dDab]G[dS][dW]S[Dab][dDab]IEI[d(aIle)]S-OH)
[1]; 600 mg/kg s.c., female mouse TF-2, day 3
  SGPT (serum): 112 Units/L
[1]; single s.c. dose 100-600 mg/kg
  mortality: No mortality was observed
[1]; single s.c. dose 100-600 mg/kg, vs vehicle control
  histopathology of heart, kidney, liver, brain, spleen: No signs of toxicity or pathological changes
[1]; subcutaneous administration
  dose up to which safety is confirmed: up to 600 mg/kg
[2]; 1
  % Biofilm remaining (biofilm inhibition): 29.6%
[2]; 2
  % Biofilm remaining (biofilm inhibition): 7.0%
[2]; 5
  % Biofilm remaining (biofilm inhibition): 0.5%
In vitro [3]
  fraction unbound at 4 h, 10 µM: 0.227
hERG channel; 0.1 µM
  Mean current: 4.41E-10 A
hERG channel; 0.3 µM
  Mean current: 4.66E-10 A
hERG channel; 1 µM
  Mean current: 4.64E-10 A
hERG channel; 3 µM
  Mean current: 4.58E-10 A
hERG channel; 10 µM
  Mean current: 4.34E-10 A
hERG channel; 30 µM
  Mean current: 4.68E-10 A
hERG channel; concentrations up to 30 µM (44.6 µg/mL)
  inhibition of the hERG channel: no significant inhibition
hERG channel; human, HEK293 cells expressing hERG, pH 7.4, 0.1 µM
  inhibition at 0.1 µM: -0.37%
hERG channel; human, HEK293 cells expressing hERG, pH 7.4, 0.3 µM
  inhibition at 0.3 µM: -5.86%
hERG channel; human, HEK293 cells expressing hERG, pH 7.4, 1 µM
  inhibition at 1 µM: -5.54%
hERG channel; human, HEK293 cells expressing hERG, pH 7.4, 3 µM
  inhibition at 3 µM: -4.07%
hERG channel; human, HEK293 cells expressing hERG, pH 7.4, 10 µM
  inhibition at 10 µM: 1.37%
hERG channel; human, HEK293 cells expressing hERG, pH 7.4, 30 µM
  inhibition at 30 µM: -6.44%
Salmonella typhimurium; 0.03 μg/plate
  AMES test Remark: Mutagenic response not observed
  AMES test TA98: NC, NR
  AMES test TA100: NC, NR
  AMES test TA102: NC, NR
  AMES test TA1535: NC, NR
  AMES test TA1537: NC, NR
Salmonella typhimurium; 0.10 μg/plate
  AMES test Remark: Mutagenic response not observed
  AMES test TA98: NC, NR
  AMES test TA100: NC, NR
  AMES test TA102: NC, NR
  AMES test TA1535: NC, NR
  AMES test TA1537: NC, NR
Salmonella typhimurium; 0.32 μg/plate
  AMES test Remark: Mutagenic response not observed
  AMES test TA98: NC, NR
  AMES test TA100: NC, NR
  AMES test TA102: NC, NR
  AMES test TA1535: NC, NR
  AMES test TA1537: NC, NR
Salmonella typhimurium; 1.00 μg/plate
  AMES test Remark: Mutagenic response not observed
  AMES test TA98: NC, NR
  AMES test TA100: NC, NR
  AMES test TA102: NC, NR
  AMES test TA1535: NC, NR
  AMES test TA1537: NC, NR
Salmonella typhimurium; 3.16 μg/plate
  AMES test Remark: Mutagenic response not observed
  AMES test TA98: NC, NR
  AMES test TA100: NC, NR
  AMES test TA102: NC, NR
  AMES test TA1535: NC, NR
  AMES test TA1537: NC, NR
Salmonella typhimurium; 10 μg/plate
  AMES test Remark: Cytotoxicity observed
  AMES test TA98: PI, RC
  AMES test TA100: PI, RC
  AMES test TA102: PI, RC
  AMES test TA1535: PI, RC
  AMES test TA1537: PI, RC
Salmonella typhimurium; 10 µg/plate and above
  effect on Salmonella typhimurium tester strains: cytotoxic
Salmonella typhimurium; 3.16, 1.00, 0.32 and 0.10 µg/plate, presence and absence of S9
  mutagenic potential: did not show any mutagenic potential
[4]
  ALP (serum): 77.33 ± 27.47 U/L
  Albumin (serum): 2.60 ± 0.47 g/dL
  BBilirubin (serum): 0.31 ± 0.06 mg/dL
  BUN (serum): 35.33 ± 11.43 mg%
  Calcium (serum): 7.76 ± 2.19 mg%
  Creatinine (serum): 0.41 ± 0.026 mg%
  Globulin (serum): 3.53 ± 0.83 g/dL
  Phosphorous (serum): 7.36 ± 1.27 mg%
  Proteins (serum): 6.13 ± 1.06 g/dL
  SGOT (serum): 657.33 ± 141.06 Units/L
  SGPT (serum): 103.67 ± 40.70 Units/L
  Uric acid (serum): 4.6 ± 1.89 mg%
  histopathological analysis of liver and kidneys: no signs of toxicity
In vitro [5]; pH 7.4
  half-life: > 2 h
  remaining at 0.25 h: 82.4%
  remaining at 0.5 h: 83.8%
  remaining at 1 h: 88.1%
  remaining at 2 h: 74.7%
In vitro [5]; pH 7.4, CL, mouse liver microsomes
  microsomal CLint: < 11 µL/min/mg
